Experimental data as given in patent US4720486A, “Method of inhibiting vertebrate collagenase activity using peptide hydroxamic acid derivatives” (Monsanto Company, priority 1987, dated 1988).
Where a SMILES comes first, the peptide text is derived from it. The star is where a group is joined. Cbz = O=C(OCc1ccccc1)*; NHOH = ON*

How the values were obtained:
Format in all cases: biochemical
[1] = target: T1, human synovial collagenase (Homo sapiens, UniProt P03956); experiment: Collagenase inhibition test (14C-collagen assay), synovial collagenase; conditions: for Ki: 0.50 M NaCl, 0.01 M CaCl2, 0.05 M Tris, pH 7.5, 35° C., Dixon plot, single substrate concentration 10 μM collagen
T1 construct: endogenous in cells; host or cells: primary human synovial cells from a knee synovectomy, stimulated with SK Hepatoma conditioned medium
T1 sequence (P03956 100-469): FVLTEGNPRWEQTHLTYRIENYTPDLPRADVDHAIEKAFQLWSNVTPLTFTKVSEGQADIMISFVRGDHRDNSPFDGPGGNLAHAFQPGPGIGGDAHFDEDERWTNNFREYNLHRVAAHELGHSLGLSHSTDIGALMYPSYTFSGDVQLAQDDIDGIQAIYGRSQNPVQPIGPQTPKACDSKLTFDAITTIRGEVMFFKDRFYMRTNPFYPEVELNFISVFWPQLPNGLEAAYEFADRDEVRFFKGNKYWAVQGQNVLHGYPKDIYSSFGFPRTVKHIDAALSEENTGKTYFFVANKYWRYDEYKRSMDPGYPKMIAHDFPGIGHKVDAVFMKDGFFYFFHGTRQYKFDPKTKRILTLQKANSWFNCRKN
Experimental: (§1) ^14 C-collagen was prepared by reductive methylation of calf skin collagen at 4° C. using ^14 C-formaldehyde and sodium borohydride. Calf skin collagen (Sigma) was dissolved at 7.5 mg/ml in 60 ml of 0.10M acetic acid and dialyzed at 4° C. against 0.15M potassium phosphate, pH 7.6, for eight hours followed by dialysis overnight against 0.4M NaCl. The collagen solution was then adjusted to pH 9.0 by addition of 0.50M sodium borate and then 1 mCi of ^14 C-formaldehyde (10 mCi/mmol) was added. After one minute, 0.10M sodium borohydride (660 μl in 1.3 mM NaOH) was added in four aliquots, followed by an additional aliquot (340 μl) 30 minutes later. The solution was then dialyzed exhaustively against 0.01M acetic acid, centrifuged to remove particulates and stored frozen in 1 ml aliquots. Specific activity was 1.3×10^6 DPM/mg. Unlabeled collagen was prepared in the same way, stored frozen and mixed with labeled collagen at a ratio of 9 to 1. For assay, the diluted ^14 C-collagen was dialyzed 6-8 hours at 4° C. against 0.15M potassium phosphate, pH 7.6, followed by dialysis overnight against 0.4M sodium chloride. This solution was centrifuged to remove any undissolved collagen and stored at 4° C.
(§2) Collagenase asays were carried out according to the method of Terato et al., Biochim. Biophys. Acta 445, 753 (1976). They were performed in 1.5 ml polypropylene microfuge tubes. Each assay tube contained 50 μl of ^14 C-collagen solution (4 mg/ml) and 50 μl of 1.0M glucose, 0.10M Tris, 0.4M NaCl, 0.02M CaCl2, pH 7.5. This solution was incubated for ten minutes at 35° C. and the reaction initiated by the addition of 100 μl of enzyme solution. Those samples containing procollagenase were first activated by incubating 100 μl aliquots with 1-5 μl of 10 mg/ml trypsin (in 1 mM HCl) for 20 minutes at 23° C., followed by 20 μl of 5 mg/ml soybean trypsin inhibitor (in 0.05M Tris, 0.01M CaCl2, pH 7.5) to quench the trypsin activity. The collagenase assay was terminated after 30 minutes at 35° C. by the addition of 20 μl of 0.08M 1,10-phenanthroline in 50% (v/v) dioxane and the incubation was continued for one hour at 35° C. to denature the collagen digestion products. Each sample was cooled for 15 minutes at 23° and 200 μl of dioxane was added with vigorous vortexing to precipitate uncleaved collagen. Following centrifugation at 11,000 RPM, 350 μl aliquots were added to 5.0 ml of Pico-Fluor 30 to determine radioactivity.
(§3) Collagenase activities were measured in the presence of the test compounds by adding an aliquot of the compound (0-85 μl) and buffer to 100 μl of glucose-collagen solution to give a total volume of 185 μl, incubating at 35° C. for 10 minutes and then initiating the reaction with 15 μl of purified collagenase. The rest of the assay was performed as described above.
(§4) To determine the mechanism of inhibition, the following equation was used [(Holmquist and Vallee, J. Biol. Chem. 249, 4601 (1974)] [formula] where Ao is the activity in the absence of inhibitor and AI is the activity in the presence of inhibitor.
Approximately 2.0 gms of synovial tissue were obtained from a patient undergoing synovectomy of the knee. All procedures were carried out in a laminar flow hood under aseptic conditions. The tissue was placed in 250 ml McCoys 5A (modified) medium containing 200 μg/ml gentamicin and stored overnight at 0° C. The next day the tissue was warmed to room temperature, cut into 0.25 cm pieces and added to 11 ml of serum-free DMEM, containing 4 mg/ml clostridial collagenase (Worthington). After incubating the mixture for one hour at room temperature, an equal volume of 0.25% trypsin was added and the incubation continued for an additional thirty minutes. The cells were spun down at 400×g for ten minutes, resuspended in 20 ml trypsin/EDTA (Gibco 10×) and incubated for 30 minutes with occasional mixing by drawing through a 25 ml pipet. The suspension was centrifuged and the pellet was washed two times with PBS:DMEM (1:1) containing 10% FBS. […]

[2] = target: T2, human skin fibroblast collagenase (Homo sapiens, UniProt P03956); experiment: Collagenase inhibition test (14C-collagen assay), skin fibroblast collagenase; conditions: 0.50 M NaCl, 0.01 M CaCl2, 0.05 M Tris, pH 7.5, 35° C.; Dixon plot, single substrate concentration 10 μM collagen
T2 construct: active collagenase isolated by this method consisted of two bands, a major species with molecular weight 45,000; host or cells: normal human skin fibroblasts CRL 1224 in SK Hepatoma conditioned medium
T2 sequence (P03956 100-469): T1 sequence (P03956 100-469)
Experimental: as §1, §2, §3, §4
One vial of normal skin fibroblasts was purchased (American Type Cell Culture CRL 1224), thawed at 37° C. and transferred to a 150 cm^2 T-flask. Fifty ml of DMEM containing 10% FBS were added and the cells incubated for one week at 37° C. under 5% CO2. The cells were then split into three T-flasks. When the flasks became overgrown with cells, normal media was replaced with SK Hepatoma conditioned media and changed twice a week. This media was stored and used as the starting material for collagenase isolation.
The other test compounds were assumed to inhibit by the same mechanism so that all studies were performed at only a single substrate concentration, 10μM, and the KI values were determined from the intersection with the abscissa.

[3] = target: T3, human collagenase isolated from skin fibroblasts and synovial cells (Homo sapiens, UniProt P03956); experiment: Collagenase inhibition, (enzyme source not distinguished)
T3 construct: endogenous in cells; host or cells: human skin fibroblasts (CRL 1224) or primary human synovial cells; enzyme purified from conditioned medium
T3 sequence (P03956 100-469): T1 sequence (P03956 100-469)
Experimental: as §1, §2
as §3, with “above. […]” for “above.”

SMILES | Ki [1] | Ki [2] | other results
O=C(CNC(=O)OCc1ccccc1)NO [Z--Gly--NHOH] | 960 µM | 600 µM | –
O=C(CNC(=O)C(Cc1ccccc1)NC(=O)OCc1ccccc1)NO (centres unmarked) [Z--Phe--Gly--NHOH] | 100 µM | 150 µM | –
CC(NC(=O)OCc1ccccc1)C(=O)NCC(=O)NO (centres unmarked) [Z--Ala--Gly--NHOH] | 2600 µM | 1300 µM | –
CC(C)CC(C(=O)NO)C(=O)N[C@@H](C)C(=O)NCC(N)=O (stereo partly drawn) [Zincov, 2-(N-Hydroxycarboxamido)-4-methylpentanoyl-L-Ala-glycine amide] | – | – | Ki ([3]; human collagenase): 2000 µM
CC(C)C[C@H](NC(=O)OCc1ccccc1)C(=O)N[C@@H](CC(C)C)C(=O)NCC(=O)NO [Z--Leu--Leu--Gly--NHOH] (Cbz-Leu-Leu-Gly-{NHOH}) | 330 µM | 300 µM | –
CC(C)CC(NC(=O)OCc1ccccc1)C(=O)NCC(=O)NO (centres unmarked) [Z--Leu--Gly--NHOH] | 170 µM | 480 µM | –
CC(C)C[C@H](NC(=O)[C@@H]1CCCN1C(=O)OCc1ccccc1)C(=O)NCC(=O)NO [Z--Pro--Leu--Gly--NHOH, N-Benzyloxycarbonyl-L-prolyl-L-leucylglycine Hydroxamic Acid] (Cbz-Pro-Leu-Gly-{NHOH}) | 47 µM | 40 µM | mechanism of inhibition (Dixon plot) ([1]; three substrate concentrations, 3.9 μM, 1.3 μM and 0.7 μM collagen, FIG. 1): non-competitive inhibition; times more active than Zincov ([3]; estimated, ratio of KI values): 50 to 100 times; KI ([3]; human collagenase): 40 µM; times more effective than the corresponding Z--Leu--Leu--Gly--NHOH analog ([3]; ratio of KI values): ten

Further lines, with some results ahead:

Ki [1] | Ki [2] | SMILES | other results
18000 µM | > 1000 µM | NCC(=O)NO [Gly--NHOH] | –
200 µM | 150 µM | CSCCC(NC(=O)OCc1ccccc1)C(=O)NCC(=O)NO (centres unmarked) [Z--Met--Gly--NHOH] | –
2000 µM | 3000 µM | O=C(CNC(=O)CNC(=O)OCc1ccccc1)NO [Z--Gly--Gly--NHOH] (Cbz-Gly-Gly-{NHOH}) | –
